Test results from the CheMixHub viscosity set.
Where “and” joins values, the source holds several entries; their conditions need not be identical. Identical values can stand only once. ± gives the uncertainty stated by the source.

COC(=O)CC(=O)OC
Details	viscosity [mPa·s]
303.15 K, 101 kPa	1.804 ± 0.018

COc1ccccc1O
101 kPa
Details	viscosity [mPa·s]
303.15 K	4.45 ± 0.12
308.15 K	4.138 ± 0.051

FC(F)C(F)(F)OCC(F)(F)C(F)(F)C(F)(F)C(F)F
101 kPa
Details	viscosity [mPa·s]
298.15 K	2.5 ± 0.11
308.15 K	2.12 ± 0.09
318.15 K	1.65 ± 0.07
323.15 K	1.52 ± 0.07

Ic1ccccc1
viscosity [mPa·s]
Details	293.15 K	298.15 K	308.15 K	318.15 K	323.15 K
101 kPa	–	1.513 ± 0.041	1.318 ± 0.036	1.162 ± 0.031	1.083 ± 0.029
101.33 kPa	1.736 ± 0.041	–	–	–	–

Nc1cccc(Cl)c1Cl
Details	viscosity [mPa·s]
313.15 K, 101 kPa	3.74 ± 0.08

O
Details	viscosity
293.15 K, 100 kPa	0.994 ± 0.012 mPa·s and 0.991 ± 0.08 mPa·s
295 K, 101.3 kPa	0.975 ± 0.07 mPa·s
295.15 K, 101 kPa	0.955 ± 0.009 mPa·s and 0.9548 ± 0.01 mPa·s
295.65 K, 100.9 kPa	0.9432 ± 0.029 mPa·s
297.15 K, 101 kPa	0.9111 ± 0.0096 mPa·s
298.15 K, 100 kPa	0.884 ± 0.071 mPa·s and 0.901 ± 0.055 mPa·s
298.15 K, 101.3 kPa	0.876 ± 0.036 mPa·s
298.15 K, 101.33 kPa	0.918 ± 0.025 mPa·s
299.15 K, 101 kPa	0.8705 ± 0.0092 mPa·s
300.15 K, 101 kPa	0.797 ± 0.021 mPa·s
300.65 K, 100.9 kPa	0.8417 ± 0.026 mPa·s
301.15 K, 101 kPa	0.8327 ± 0.0088 mPa·s
302.15 K, 101 kPa	0.917 ± 0.2 mPa·s
303.15 K, 100 kPa	0.796 ± 0.064 mPa·s and 0.81 ± 0.04 mPa·s
305.15 K, 101 kPa	0.816 ± 0.18 mPa·s and 0.717 ± 0.02 mPa·s
305.65 K, 100.9 kPa	0.7567 ± 0.023 mPa·s
307.15 K, 101 kPa	0.734 ± 0.0077 mPa·s
308.15 K, 101.3 kPa	0.716 ± 0.015 mPa·s and 0.708 ± 0.029 mPa·s and 0.717 ± 0.08 mPa·s
309.15 K, 101 kPa	0.7052 ± 0.0074 mPa·s
310.65 K, 100.9 kPa	0.6848 ± 0.021 mPa·s
311.15 K, 101 kPa	0.6833 ± 0.015 mPa·s and 0.6783 ± 0.0072 mPa·s
313.15 K, 100 kPa	0.662 ± 0.053 mPa·s and 0.6579 ± 0.027 mPa·s and 0.66 ± 0.04 mPa·s
313.15 K, 101.33 kPa	0.5631 ± 0.021 mPa·s and 0.658 ± 0.018 mPa·s
315.15 K, 101 kPa	0.6291 ± 0.0067 mPa·s
316.15 K, 101 kPa	0.6189 ± 0.013 mPa·s
317.15 K, 101 kPa	0.6067 ± 0.0064 mPa·s
318.15 K, 101.3 kPa	0.594 ± 0.013 mPa·s and 0.589 ± 0.024 mPa·s and 0.592 ± 0.08 mPa·s
318.15 K, 101.33 kPa	0.6 ± 0.004 mPa·s and 0.6 ± 0.03 mPa·s
319.15 K, 101 kPa	0.5856 ± 0.0062 mPa·s
320.15 K, 101 kPa	0.5748 ± 0.012 mPa·s
320.65 K, 100.9 kPa	0.5706 ± 0.018 mPa·s
321.15 K, 101 kPa	0.5656 ± 0.006 mPa·s
322.9 K, 101 kPa	0.5516 ± 0.015 mPa·s
323.15 K, 100 kPa	0.567 ± 0.007 mPa·s and 0.566 ± 0.045 mPa·s
323.15 K, 101 kPa	0.56 ± 0.17 mPa·s and 0.5829 ± 0.008 mPa·s and 0.5538 mPa·s

O=C1CCCCO1
101 kPa
Details	viscosity [mPa·s]
303.15 K	2.758 ± 0.19
308.15 K	2.496 ± 0.17
313.15 K	2.313 ± 0.16
318.15 K	2.119 ± 0.15

O=C1CCCO1
viscosity
Details	293.15 K	298.15 K	303.15 K	308.15 K	313.15 K	318.15 K	323.15 K
100 kPa	1.92 ± 0.04 mPa·s	1.73 ± 0.07 mPa·s and 1.73 ± 0.04 mPa·s (3×)	1.63 ± 0.07 mPa·s and 1.63 ± 0.04 mPa·s (3×) and 1.59 ± 0.03 mPa·s	1.52 ± 0.06 mPa·s and 1.52 ± 0.03 mPa·s (3×)	1.42 ± 0.06 mPa·s and 1.42 ± 0.03 mPa·s (3×)	1.35 ± 0.06 mPa·s and 1.35 ± 0.03 mPa·s (3×)	1.3 ± 0.05 mPa·s and 1.3 ± 0.03 mPa·s (3×)
101 kPa	–	1.74 ± 0.1 mPa·s and 1.764 ± 0.015 mPa·s	–	1.477 ± 0.024 mPa·s and 1.522 ± 0.013 mPa·s and 1.429 ± 0.1 mPa·s	–	1.286 ± 0.022 mPa·s and 1.33 ± 0.012 mPa·s and 1.234 ± 0.089 mPa·s	1.206 ± 0.021 mPa·s and 1.22 ± 0.08 mPa·s
101.3 kPa	–	1.75 ± 0.33 mPa·s	–	–	–	–	–
101.33 kPa	1.883 ± 0.017 mPa·s	1.738 ± 0.013 mPa·s and 1.745 ± 0.016 mPa·s	1.765 ± 0.029 mPa·s and 1.61 ± 0.013 mPa·s and 1.612 ± 0.015 mPa·s	1.498 ± 0.014 mPa·s	1.39 ± 0.011 mPa·s	–	1.213 ± 0.01 mPa·s

OCC(F)(F)F
Details	viscosity
293.15 K, 101 kPa	2.11 ± 0.04 mPa·s and 2.108 ± 0.21 mPa·s
298 K, 101.3 kPa	1.737 ± 0.016 mPa·s
298.15 K, 100 kPa	1.744 ± 0.037 mPa·s
298.15 K, 101 kPa	1.84 ± 0.04 mPa·s and 1.722 ± 0.045 mPa·s
298.15 K, 101.33 kPa	1.73 ± 0.02 mPa·s
303 K, 101.3 kPa	1.357 ± 0.014 mPa·s
303.15 K, 101 kPa	1.62 ± 0.03 mPa·s
303.15 K, 101.33 kPa	1.53 ± 0.02 mPa·s
308 K, 101.3 kPa	1.201 ± 0.013 mPa·s
308.15 K, 101 kPa	1.43 ± 0.03 mPa·s
308.15 K, 101.33 kPa	1.35 ± 0.01 mPa·s
313 K, 101.3 kPa	1.054 ± 0.013 mPa·s
313.15 K, 100 kPa	1.23 ± 0.6 mPa·s
313.15 K, 101 kPa	1.27 ± 0.03 mPa·s and 1.203 ± 0.12 mPa·s
318.15 K, 100 kPa	1.1 mPa·s
318.15 K, 101 kPa	1.13 ± 0.02 mPa·s
318.15 K, 101.33 kPa	1.09 ± 0.01 mPa·s
323.15 K, 100 kPa	0.99 ± 0.2 mPa·s and 0.948 ± 0.021 mPa·s
323.15 K, 101 kPa	1.02 ± 0.02 mPa·s and 0.963 ± 0.097 mPa·s
